Assay results taken from patent US12331051B2 (priority 2021, dated 2025).

Columns and labels:
[1] = Single-dose comparative pharmacokinetic study, IV and oral, fasted and fed; assay type: in vivo, Beagle dogs
Method: A single-dose comparative pharmacokinetic (PK) study was conducted in Beagle dogs to assess the oral bioavailability and the effect of food on the “E559 polymorph” (FIG. 12). Four male dogs were used in 3 test groups in a cross-over design with at least 3 days washout period between each test group (Groups 1, 2 and 3). In Group 1, four male dogs received a single intravenous (IV) dose of 0.0324 mg/kg of the “polymorph E559”. In Group 2 the same four dogs received a single oral dose of 0.324 mg/kg of the “polymorph E559” in fasted state. In Group 3 the same four dogs received a single oral dose of 0.324 mg/kg of the “E559 polymorph” in the fed state (same oral dose amount as in Group 2). Blood samples were collected from all dogs at pre-dose and 0.08, 0.25, 0.5, 1, 2, 4, 8, and 24 hours post dose to measure the “E559 polymorph” levels by LC-MS/MS method conducted as described in Example 3.

[2] = tested on: primary rat embryonic cortical neurons; assay: In vitro dendritogenesis and spinogenesis assays, Sholl analysis; assay type: cell-based
Method: The ability of the “E559 polymorph” to induce neural plasticity was evaluated in vitro. In vitro dendritogenesis and spinogenesis assays were conducted using primary rat embryonic cortical neurons. Briefly, cultured primary cortical neurons (rat) were treated at day in vitro (DIV) 3 for 3 hours with increasing concentrations (1, 10 and 100 nM, 1 and […]) of the “E559 polymorph” and morphological changes in dendritic arbor complexity (dendritogenesis) were assessed at DIV6 by immunofluorescent staining of fixed neurons with microtubule-associated protein 2 (MAP2, a microtubule marker), F-actin (cytoskeletal marker), and phalloidin (actin filament marker) followed by fluorescent microscopy and Sholl analysis of neurons' images. […] The spine density assessments (spinogenesis) were made on DIV 18. The cell viability assessments were made on DIV 6 by using the Neurite Outgrowth Staining Kit which includes fluorescent probes for dead and live neuronal cells. Ketamine was used as a comparator and positive control. Ketamine is known to induce dendritogenesis and its effects on synaptic plasticity are believed to mediate its antidepressant effects (Aguilar-Valles et al., Nature, 2021, 590, p315-319). Representative images of MAP2 stained rat cortical neurons treated with vehicle (no drug control) or with “E559 polymorph” is shown in FIG. 18A.
Horizontal lines in all figure panels represent the means±standard error of the mean (S.E.M.).

DVS hygroscopicity = assay type: physicochemical; settings: for DVS (hold at 75% RH) mass increase: crude material, 75% relative humidity, ~5 hr run time
D1 dopamine receptor = D1 dopamine receptor (Homo sapiens, UniProt P21728); assay: Radioligand binding, cell membrane homogenates; set-up: expressed in transfected cells; host or cells: HEK-293
Sequence of D1 dopamine receptor (P21728 whole entry): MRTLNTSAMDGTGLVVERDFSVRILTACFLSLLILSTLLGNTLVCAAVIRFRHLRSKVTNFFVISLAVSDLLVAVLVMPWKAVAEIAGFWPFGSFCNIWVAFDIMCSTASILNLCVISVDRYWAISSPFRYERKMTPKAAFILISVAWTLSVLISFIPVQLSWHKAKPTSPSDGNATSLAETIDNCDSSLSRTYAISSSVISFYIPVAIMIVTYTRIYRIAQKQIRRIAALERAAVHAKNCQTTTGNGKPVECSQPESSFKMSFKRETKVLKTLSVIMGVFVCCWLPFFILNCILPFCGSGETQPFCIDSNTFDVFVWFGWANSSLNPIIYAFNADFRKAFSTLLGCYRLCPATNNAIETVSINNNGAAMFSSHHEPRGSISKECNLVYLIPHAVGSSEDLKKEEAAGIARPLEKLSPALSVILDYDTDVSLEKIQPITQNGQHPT
Method: Neuro-receptor binding and functional effects of the “E559 polymorph” was examined by analyzing binding affinity [Ki (nM)], functional agonist activity [EC50 (nM)], and functional antagonist activity [IC50 (nM)] against a panel of key receptors in neurophysiological disorders. Binding and functional assays were performed at “E559 polymorph” concentrations of 0.0003, 0.003, 0.01, 0.03, 0.1, 0.3, 1, and 10 μM. In binding assays, cell membrane homogenates, expressing each receptor target, were incubated with the corresponding radio-ligand in absence or presence of several concentration of the “E559 polymorph” compound. The measurement of binding affinity of the “E559 polymorph” is represented in TABLE XIII by Ki (nM) which was calculated as percent inhibition of the binding of a radioactively labeled reference ligand at each receptor. […] Following incubation, the cells were lysed and the appropriate fluorescent probe (Ca2+ flux, cAMP, or IP1) were added for 60 minutes to measure the fluorescence transfer at the appropriate wavelength using a microplate reader. The cellular agonist effect (EC50) was calculated as a percent of control response to a known reference agonist and the cellular antagonist effect (IC50) was calculated as a percent inhibition of control reference agonist response for each receptor.

5-HT6 = 5-HT6 (Homo sapiens, UniProt P50406); assay: Functional assay (cAMP); assay type: cell-based; set-up: expressed in transfected cells; host or cells: HEK-293
Sequence of 5-HT6 (P50406 whole entry): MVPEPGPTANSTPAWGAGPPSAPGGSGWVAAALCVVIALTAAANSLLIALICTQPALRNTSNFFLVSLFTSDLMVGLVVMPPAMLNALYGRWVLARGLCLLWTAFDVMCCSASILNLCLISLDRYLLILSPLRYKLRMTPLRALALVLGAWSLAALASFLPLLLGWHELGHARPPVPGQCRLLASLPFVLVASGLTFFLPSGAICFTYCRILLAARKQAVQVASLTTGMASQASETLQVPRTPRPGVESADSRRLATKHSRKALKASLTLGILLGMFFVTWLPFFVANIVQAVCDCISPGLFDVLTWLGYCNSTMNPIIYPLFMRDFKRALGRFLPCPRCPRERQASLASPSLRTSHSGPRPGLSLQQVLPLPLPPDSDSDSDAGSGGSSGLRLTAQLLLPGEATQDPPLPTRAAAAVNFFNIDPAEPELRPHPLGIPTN
Method: Neuro-receptor binding and functional effects of the “E559 polymorph” was examined by analyzing binding affinity [Ki (nM)], functional agonist activity [EC50 (nM)], and functional antagonist activity [IC50 (nM)] against a panel of key receptors in neurophysiological disorders. Binding and functional assays were performed at “E559 polymorph” concentrations of 0.0003, 0.003, 0.01, 0.03, 0.1, 0.3, 1, and 10 μM. In binding assays, cell membrane homogenates, expressing each receptor target, were incubated with the corresponding radio-ligand in absence or presence of several concentration of the “E559 polymorph” compound. The measurement of binding affinity of the “E559 polymorph” is represented in TABLE XIII by Ki (nM) which was calculated as percent inhibition of the binding of a radioactively labeled reference ligand at each receptor. In functional assays the HEK-293 cells expressing each receptor target were suspended in buffer and distribute in microplates and incubated for 30 minutes at room temperature or 37° C. in the presence of buffer alone (basal control), the reference agonist or antagonist, or the “E559 polymorph. Following incubation, the cells were lysed and the appropriate fluorescent probe (Ca2+ flux, cAMP, or IP1) were added for 60 minutes to measure the fluorescence transfer at the appropriate wavelength using a microplate reader. The cellular agonist effect (EC50) was calculated as a percent of control response to a known reference agonist and the cellular antagonist effect (IC50) was calculated as a percent inhibition of control reference agonist response for each receptor.
The functional agonist activity [EC50 (nM), Emax], and functional antagonist activity [IC50 (nM)] of the 5R:8S stereoisomer of the “E559 polymorph” (5R:8S E558) was compared with the “E559 polymorph” (a 5R:8R stereoisomer) at selected serotonin receptors. The assays were performed as described in Example 6.

CCN(CC)C(=O)[C@@H]1C=C2c3cccc4[nH]c(Br)c(c34)C[C@H]2N(C)C1 [E559, (5R, 8R)-2-Bromo-9,10-didehydro-N,N-diethyl-6-methylergoline-8-carboxamide hemi-D-tartrate]
oral bioavailability ([1]; oral 0.324 mg/kg vs IV 0.0324 mg/kg): good oral bioavailability
effect of food on oral bioavailability ([1]; oral 0.324 mg/kg, fasted vs fed): no differences in the mean absolute and relative oral bioavailability between fasted and fed dogs
lowest concentration at which increase in neuronal plasticity reached statistical significance ([2]; 3 hours treatment at DIV3): 1 µM
lowest concentration at which increase in neuronal plasticity was detectable ([2]; 3 hours treatment at DIV3): 1 nM
total length of the dendritic arbor ([2]; DIV6, 1 and 10 μM): total length of the dendritic arbor was also increased
total dendrites crossing the Sholl radii ([2]; DIV6, 1 and 10 μM significant vs control): significantly increased the number of total dendrites crossing the Sholl radii
spine density ([2]; DIV 18, 3-hour incubation at 1 and 10 μM): increased the spine density
DVS (0-90-0 2 cycles) max water absorbed (DVS hygroscopicity; 90% RH exposure, ~24 hr run time, listed as D-Tartrate): absorbed max 7% water
DVS (hold at 75% RH) mass increase (DVS hygroscopicity): about 3.4%
DVS (hold at 75% RH) mass increase (DVS hygroscopicity; listed as D-Tartrate): 3.4% mass increase
Ki (D1 dopamine receptor): 0.025 µM
EC50 (5-HT6): 0.0005 µM
Emax (5-HT6; cAMP, ligand 5-HT, read-out: Functional Assay (agonist) Emax): 80.1%
